Numbering of substitutions follows the chain as printed. Where a name gives a salt, the structure may show the parent alone.
What was measured:
[1] = target: T1, MRGPRX2-WT (wild-type MRGPRX2 receptor) (Homo sapiens, UniProt Q96LB1); assay: Primary HTS, Ca2+ mobilization (fluorescence ratio, B-score) in HEK293-Gα15 cells stably expressing wild-type MRGPRX2; assay type: cell-based; settings: 10 μM compound
T1 construct: expressed in transfected cells
T1 sequence (Q96LB1 1-330): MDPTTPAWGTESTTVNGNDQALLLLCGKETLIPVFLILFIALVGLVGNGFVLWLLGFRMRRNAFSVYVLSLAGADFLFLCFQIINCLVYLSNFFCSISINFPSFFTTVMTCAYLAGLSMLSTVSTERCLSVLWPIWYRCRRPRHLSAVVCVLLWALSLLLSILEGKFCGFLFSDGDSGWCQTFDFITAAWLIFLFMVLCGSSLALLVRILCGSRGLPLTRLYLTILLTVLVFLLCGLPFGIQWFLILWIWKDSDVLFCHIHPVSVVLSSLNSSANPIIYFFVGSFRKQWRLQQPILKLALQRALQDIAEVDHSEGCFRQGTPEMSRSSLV
Protocol: (§1) We performed an experimental HTS on the Johns Hopkins Drug Library, which includes 1,811 (57%) FDA-approved drugs among 3,456 total compounds (28% of all known drugs worldwide) ([15]). We performed the HTS at the Johns Hopkins University ChemBioCORE Facility and employed HEK293-Gα15 cell lines that stably expressed MRGPRX2 protein.
(§2) We utilized 10 μM compounds (each compound was tested in triplicate) and calculated the compound effect using the signal-to-background fluorescence ratio (see Supplementary Methods).
(§3) In the HTS, we determined MRGPRX2 activation by a Ca^2+ mobilization assay that recorded a fluorescence change by utilizing a Functional Drug Screening System (FDSS 6000; Hamamatsu); we evaluated the compound effect using the calculated fluorescence ratio. We further applied the B-score normalization, which provided robust corrections for variation in fluorescence ratio ([22]).
(§4) We performed an experimental high-throughput screening (HTS) on the Johns Hopkins Drug Library (JHDL), which includes 1,811 (57%) FDA-approved drugs among 3,456 total compounds (28% of all known drugs worldwide). The remaining compounds in JHDL are catalogued in one or more of the resources below: British Approved Names (BAN); Dénominations Communes Françaises (DCF); International Nonproprietary Names (INN); Japanese Adopted Names (JAN); MI (Merck Index); National Formulary drug name (NF); and United States Accepted Names (USAN). The JHU drug library is stocked in 96 well plates at 10 mM in 100% DMSO and stored at -80 °C. We used a final concentration of 10 uM for each compound and DMSO concentration of 0.1% (tested in triplicate). […] We evaluated compound effect using the calculated fluorescence ratio. We further calculated B-scores, which are a relative potency score similar to Z scores in that they are the ratio of an adjusted raw value in the numerator to a measure of variability in the denominator.

[2] = target: T2, MRGPRX2-MUT (MRGPRX2 N62S mutation) (Homo sapiens, UniProt Q96LB1, N62S); assay: Primary HTS, Ca2+ mobilization (fluorescence ratio, B-score) in HEK293-Gα15 cells stably expressing the MRGPRX2 N62S mutation; assay type: cell-based; settings: for B-scores (MUT): 10 μM compound, MRGPRX2-MUT (N62S) cells; for Change of B-scores (%): 10 μM
T2 construct: expressed in transfected cells
T2 sequence (Q96LB1 1-330 N62S): T1 sequence (Q96LB1 1-330) with N62S
Protocol: as §1, §2, §3, §4

[3] = MRGPRX2-MUT in comparison to MRGPRX2-WT cells, Supplementary Table 1
[4] = MRGPRX2-MUT versus MRGPRX2-WT cells, Supplementary Table 2
[5] = MRGPRX2-MUT in comparison to MRGPRX2-WT cells, Table 1

B-scores (WT) ([1]; Supplementary Table 1) | B-scores (WT) ([1]; Supplementary Table 2) | B-scores (MUT) ([2]; Supplementary Table 1) | B-scores (MUT) ([2]; Supplementary Table 2) | Change of B-scores (%) [2, 3] | Change of B-scores (%) [2, 4] | B-scores (WT) ([1]; Table 1) | B-scores (MUT) ([2]; Table 1) | Change of B-scores (%) [2, 5] | Structure (SMILES)
47.11 | 47.11 | 65.23 | 65.23 | 38.45% | 38.45% | – | – | – | CC(=O)OCC[N+](C)(C)C [Acetylcholine Chloride]
23.36 | 23.36 | 80.61 | 80.61 | 245.01% | 245.01% | – | – | – | CC(=O)OCC[N+](C)(C)C [Acetylcholine]
35.61 | – | 0.32 | – | -99.09% | – | – | – | – | Nc1ncnc2c1ncn2[C@@H]1O[C@H](CO)[C@@H](O)[C@H]1O [Adenosine]
– | 12.09 | – | 2.96 | – | -75.51% | – | – | – | CC(C)(C)NCC(O)c1ccc(O)c(CO)c1.CC(C)(C)NCC(O)c1ccc(O)c(CO)c1.O=S(=O)(O)O (stereo not drawn) [Albuterol sulfate]
30.77 | – | 1.68 | – | -94.54% | – | 30.77 | 1.68 | -94.54% | CCCCC(CC)CNC(=N)NC(=N)NCCCCCCNC(=N)NC(=N)NCC(CC)CCCC (stereo not drawn) [Alexidine Hydrochloride]
42.04 | – | 11.08 | – | -73.65% | – | – | – | – | CCCCC[C@H](O)/C=C/[C@H]1[C@H](O)CC(=O)[C@@H]1CCCCCCC(=O)O [Alprostadil]
31.57 | – | 3.87 | – | -87.76% | – | – | – | – | CCOC(=O)C1=C(COCCN)NC(C)=C(C(=O)OC)C1c1ccccc1Cl (stereo not drawn) [Amlodipine Besylate]
19.27 | – | 37.55 | – | 94.89% | – | – | – | – | CC(C[N+](C)(C)C)OC(N)=O (stereo not drawn) [Bethanechol Chloride]
18.22 | 18.22 | 0.64 | 0.64 | -96.48% | -96.48% | 18.22 | 0.64 | -96.48% | CN(C)CCC(c1ccc(Br)cc1)c1ccccn1 (stereo not drawn) [Brompheniramine]
42.55 | 42.55 | 63.57 | 63.57 | 49.41% | 49.41% | – | – | – | C[N+](C)(C)CCOC(N)=O [Carbachol]
29.98 | – | 16.90 | – | -43.63% | – | – | – | – | CC(=O)O.CC(=O)O.CC[C@H](C)C[C@H](C)CCCCCCCCC(=O)N[C@H]1C[C@@H](O)[C@@H](NCCN)NC(=O)[C@@H]2[C@@H](O)CCN2C(=O)[C@H]([C@H](O)CCN)NC(=O)[C@H]([C@H](O)[C@@H](O)c2ccc(O)cc2)NC(=O)[C@@H]2C[C@@H](O)CN2C(=O)[C@H]([C@@H](C)O)NC1=O [Caspofungin acetate]
– | 9.6 | – | 0.88 | – | -90.88% | – | – | – | CN(C)CCC(c1ccc(Cl)cc1)c1ccccn1 (stereo not drawn) [Chlorpheniramine]
– | 7.97 | – | 2.69 | – | -66.27% | – | – | – | CN(C)CCCN1c2ccccc2Sc2ccc(Cl)cc21 [Chlorpromazine Hydrochloride]
– | 10.2 | – | -0.05 | – | -100.54% | – | – | – | CN(C)CCCN1c2ccccc2Sc2ccc(Cl)cc21 [Chlorpromazine]

More lines, now with the values behind:

Structure (SMILES) | B-scores (WT) ([1]; Supplementary Table 1) | B-scores (WT) ([1]; Supplementary Table 2) | B-scores (MUT) ([2]; Supplementary Table 1) | B-scores (MUT) ([2]; Supplementary Table 2) | Change of B-scores (%) [2, 3] | Change of B-scores (%) [2, 4] | B-scores (WT) ([1]; Table 1) | B-scores (MUT) ([2]; Table 1) | Change of B-scores (%) [2, 5]
CC(=O)c1ccc2c(c1)N(CCCN(C)C)c1ccccc1S2 [Acepromazine Maleate] | 44.01 | 44.01 | 28.97 | 28.97 | -34.19% | -34.19% | – | – | –
CC(=O)c1ccc2c(c1)N(CCCN(C)C)c1ccccc1S2 [Acepromazine] | – | 22.99 | – | 43.26 | – | 88.18% | – | – | –
CN(C)CCc1c[nH]c2ccc(CS(=O)(=O)N3CCCC3)cc12 [Almotriptan] | 18.49 | – | 2.98 | – | -83.88% | – | – | – | –
CN(C)CCC=C1c2ccccc2CCc2ccccc21 [Amitriptyline hydrochloride] | – | 16.31 | – | 1.83 | – | -88.77% | – | – | –
COC(=O)C1=CCCN(C)C1 [Arecoline Hydrobromide] | 28.78 | – | 58.08 | – | 101.79% | – | – | – | –
CN1[C@@H]2CC[C@H]1C[C@@H](OC(=O)C(CO)c1ccccc1)C2 (stereo partly drawn) [Atropine Sulfate Monohydrate] | 24.16 | 24.16 | 0.90 | 0.9 | -96.27% | -96.27% | – | – | –
CN1[C@@H]2CC[C@H]1C[C@@H](OC(=O)C(CO)c1ccccc1)C2 (stereo partly drawn) [Atropine Sulfate] | 41.43 | 41.43 | – | -0.13 | -100.31% | -100.31% | – | – | –
CN1[C@@H]2CC[C@H]1C[C@@H](OC(=O)C(CO)c1ccccc1)C2 (stereo partly drawn) [Atropine] | 18.59 | 18.59 | – | -0.95 | -105.08% | -105.08% | – | – | –
CN1CCCC(n2nc(Cc3ccc(Cl)cc3)c3ccccc3c2=O)CC1 (stereo not drawn) [Azelastine Hydrochloride] | 36.21 | – | 3.47 | – | -90.42% | – | 36.21 | 3.47 | -90.42%
CN1[C@@H]2CC[C@H]1C[C@@H](OC(c1ccccc1)c1ccccc1)C2 [Benztropine Methanesulfonate] | 26.25 | – | 2.81 | – | -89.29% | – | – | – | –
CN1[C@@H]2CC[C@H]1C[C@@H](OC(c1ccccc1)c1ccccc1)C2 [Benztropine] | 21.42 | – | 1.35 | – | -93.68% | – | – | – | –
CN(C)CCOC(c1ccccc1)c1ccc(Br)cc1.Cl (stereo not drawn) [Bromazine hydrochloride] | – | 11.37 | – | -0.05 | – | -100.41% | – | – | –
CN(C)CCOC(c1ccc(Cl)cc1)c1ccccn1 (stereo not drawn) [Carbinoxamine Maleate] | 38.93 | – | 1.49 | 1.49 | -96.18% | -94.84% | 38.93 | 1.49 | -96.18%
CN(C)CCOC(c1ccc(Cl)cc1)c1ccccn1 (stereo not drawn) [Carbinoxamine] | – | 11.13 | – | 0.12 | – | -98.93% | – | – | –
COc1ccc2cc1Oc1ccc(cc1)C[C@H]1c3c(cc4c(c3Oc3cc5c(cc3OC)CCN(C)[C@@H]5C2)OCO4)CCN1C [Cepharanthine] | 19.73 | – | 1.14 | – | -94.20% | – | 19.73 | 1.14 | -94.20%
CN(C)CCN(Cc1ccc(Cl)cc1)c1ccccn1.Cl [Chloropyramine Hydrochloride] | – | 14.6 | – | 3.24 | – | -77.83% | – | – | –
